Experimental data as given in paper PMC9908843 (Angewandte Chemie (International Ed. in English), 2023).

Legend:
TmGH1 [1] = target: T1, TmGH1 (Thermotoga maritima, UniProt Q08638); test: TmGH1 inhibition; format: biochemical
T1 sequence (Q08638 1-446): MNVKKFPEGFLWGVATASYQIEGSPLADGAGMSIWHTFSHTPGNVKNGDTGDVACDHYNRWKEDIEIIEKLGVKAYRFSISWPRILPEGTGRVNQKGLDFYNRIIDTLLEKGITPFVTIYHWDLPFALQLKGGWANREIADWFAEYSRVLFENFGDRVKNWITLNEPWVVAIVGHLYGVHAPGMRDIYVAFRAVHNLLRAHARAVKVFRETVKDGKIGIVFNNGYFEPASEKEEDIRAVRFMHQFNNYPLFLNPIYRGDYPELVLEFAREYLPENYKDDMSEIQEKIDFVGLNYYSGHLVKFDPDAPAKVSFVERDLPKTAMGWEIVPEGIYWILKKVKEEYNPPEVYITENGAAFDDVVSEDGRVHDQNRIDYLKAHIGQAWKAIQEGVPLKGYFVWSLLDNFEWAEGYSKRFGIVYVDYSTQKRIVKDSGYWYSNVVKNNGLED

SsGH1 = target: T2, SsGH1 (Saccharolobus solfataricus, UniProt P22498); test: SsGH1 inhibition; format: biochemical, Sulfolobus solfataricus
T2 sequence (P22498 1-489): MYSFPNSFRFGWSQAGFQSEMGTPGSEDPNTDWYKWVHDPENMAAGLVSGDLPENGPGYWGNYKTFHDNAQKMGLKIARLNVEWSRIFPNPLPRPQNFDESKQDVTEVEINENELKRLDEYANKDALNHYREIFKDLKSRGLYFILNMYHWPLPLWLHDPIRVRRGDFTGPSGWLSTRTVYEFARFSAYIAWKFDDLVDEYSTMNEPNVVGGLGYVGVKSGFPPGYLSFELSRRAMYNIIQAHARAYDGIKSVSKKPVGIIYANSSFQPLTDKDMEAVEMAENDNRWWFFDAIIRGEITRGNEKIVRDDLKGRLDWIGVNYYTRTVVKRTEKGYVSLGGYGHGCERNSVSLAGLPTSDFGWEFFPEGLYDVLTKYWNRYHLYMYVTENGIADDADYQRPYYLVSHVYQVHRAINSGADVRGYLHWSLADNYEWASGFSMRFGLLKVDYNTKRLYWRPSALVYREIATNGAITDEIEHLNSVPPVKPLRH

TmGH1, SsGH1 and BtMan2A = format: biochemical; conditions: 3 vs 4 (TmGH1, SsGH1), 7 vs 8 (BtMan2A)
BtMan2A = target: T3, BtMan2A (Bacteroides thetaiotaomicron, UniProt Q8AAK6); test: BtMan2A inhibition; format: biochemical; conditions: ratio of Ki for BtMan2A
T3 sequence (Q8AAK6 26-864): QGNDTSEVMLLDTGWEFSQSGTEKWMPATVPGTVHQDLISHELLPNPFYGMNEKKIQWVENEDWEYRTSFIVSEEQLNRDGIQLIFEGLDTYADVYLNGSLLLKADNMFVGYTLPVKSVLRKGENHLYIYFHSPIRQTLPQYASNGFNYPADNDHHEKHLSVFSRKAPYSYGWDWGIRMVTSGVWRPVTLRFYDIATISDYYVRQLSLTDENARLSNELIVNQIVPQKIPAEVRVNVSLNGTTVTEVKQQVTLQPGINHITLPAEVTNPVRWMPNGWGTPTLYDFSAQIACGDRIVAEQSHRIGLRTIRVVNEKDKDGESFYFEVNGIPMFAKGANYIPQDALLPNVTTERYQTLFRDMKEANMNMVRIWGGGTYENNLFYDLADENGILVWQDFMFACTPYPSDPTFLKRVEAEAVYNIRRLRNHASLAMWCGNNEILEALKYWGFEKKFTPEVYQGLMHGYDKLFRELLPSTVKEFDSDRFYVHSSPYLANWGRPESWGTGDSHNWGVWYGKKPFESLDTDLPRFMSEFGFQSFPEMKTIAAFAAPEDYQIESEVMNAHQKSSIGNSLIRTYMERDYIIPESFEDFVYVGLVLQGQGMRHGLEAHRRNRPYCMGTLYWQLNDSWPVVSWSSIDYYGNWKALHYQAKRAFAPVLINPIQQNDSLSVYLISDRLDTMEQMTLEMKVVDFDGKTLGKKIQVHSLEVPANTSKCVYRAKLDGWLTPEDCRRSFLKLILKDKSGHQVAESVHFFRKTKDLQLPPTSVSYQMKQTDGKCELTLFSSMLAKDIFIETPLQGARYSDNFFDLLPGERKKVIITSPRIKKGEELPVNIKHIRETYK

TmGH1 [2] = target: T1, TmGH1; conditions: cited from earlier work

Ki (TmGH1 [1])	Ki (SsGH1)	Fold better inhibitor than the isosteric compound with the gt conformation (TmGH1, SsGH1 and BtMan2A)	Fold greater potency over 1-deoxymannojirimycin 6 (BtMan2A)	Compound	Fold better inhibitor than 1-deoxynojirimycin 2 (TmGH1 [2])
5.4 ± 0.5 µM	3.1 ± 0.2 µM	–	–	OC[C@H]1NC[C@H](O)[C@@H](O)[C@@H]1O [Compound 2, 1‐deoxynojirimycin, reference compound]	–
–	–	between six‐ and ten‐fold	27 fold	C[C@H](O)[C@H]1NC[C@@H](O)[C@@H](O)[C@@H]1O.Cl [Compound 7]	–

The remaining lines, values behind:

Compound	Ki (TmGH1 [1])	Ki (SsGH1)	Fold better inhibitor than the isosteric compound with the gt conformation (TmGH1, SsGH1 and BtMan2A)	Fold greater potency over 1-deoxymannojirimycin 6 (BtMan2A)	Fold better inhibitor than 1-deoxynojirimycin 2 (TmGH1 [2])
C[C@@H](O)[C@H]1NC[C@H](O)[C@@H](O)[C@@H]1O [Compound 4]	135 ± 11 µM	105 ± 10 µM	–	–	–
C[C@H](O)[C@H]1NC[C@H](O)[C@@H](O)[C@@H]1O.Cl [Compound 3]	16 ± 2 µM	17 ± 1 µM	between six‐ and ten‐fold	–	–
O[C@H]1[C@H](O)[C@@H](O)CN2CC[C@H](O)[C@H]12 [Compound 1, castanospermine]	–	–	–	–	four‐fold
